Measured values: PubChem BioAssay (NCI)
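Cells were grown in 96-well plates and exposed to each compound for 48 hours at five concentrations; endpoints were interpolated linearly between bracketing concentrations, or set to the highest concentration if not reached. Abbreviation: GI50, concentration required for 50% inhibition of growth. The concentration for full growth arrest is given as TGI.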

Key:
Experiment in all cases: NCI-60 cell line screen, 48 h; in the data active means GI50 below about 0.43 µM; inactive means the rest
SK-MEL-5 melanoma = test system: SK-MEL-5 melanoma
A498 renal = test system: A498 renal
XF 498 CNS = test system: XF 498 CNS
SNB-19 CNS = test system: SNB-19 CNS
DMS 114 small cell lung = test system: DMS 114 small cell lung
LOX IMVI melanoma = test system: LOX IMVI melanoma
SN12C renal = test system: SN12C renal
TK-10 renal = test system: TK-10 renal
RPMI-8226 leukemia = test system: RPMI-8226 leukemia
M19-MEL melanoma = test system: M19-MEL melanoma
UACC-257 melanoma = test system: UACC-257 melanoma
CAKI-1 renal = test system: CAKI-1 renal
OVCAR-8 ovarian = test system: OVCAR-8 ovarian
SK-MEL-28 melanoma = test system: SK-MEL-28 melanoma
NCI-H522 lung = test system: NCI-H522 lung
SF-539 CNS = test system: SF-539 CNS
RXF-631 renal = test system: RXF-631 renal
KM20L2 colon = test system: KM20L2 colon
CCRF-CEM leukemia = test system: CCRF-CEM leukemia
DMS 273 small cell lung = test system: DMS 273 small cell lung
OVCAR-4 ovarian = test system: OVCAR-4 ovarian
HCT-15 colon = test system: HCT-15 colon
UACC-62 melanoma = test system: UACC-62 melanoma
IGROV1 ovarian = test system: IGROV1 ovarian
HOP-18 NSCLC = test system: HOP-18 NSCLC
SF-295 CNS = test system: SF-295 CNS
OVCAR-5 ovarian = test system: OVCAR-5 ovarian
KM12 colon = test system: KM12 colon
HT29 colon = test system: HT29 colon
ACHN renal = test system: ACHN renal
UO-31 renal = test system: UO-31 renal
EKVX NSCLC = test system: EKVX NSCLC
HCC-2998 colon = test system: HCC-2998 colon
HOP-62 NSCLC = test system: HOP-62 NSCLC
M14 melanoma = test system: M14 melanoma
SW-620 colon = test system: SW-620 colon
786-0 renal = test system: 786-0 renal
NCI-H23 lung = test system: NCI-H23 lung
LXFL 529 NSCLC = test system: LXFL 529 NSCLC
OVCAR-3 ovarian = test system: OVCAR-3 ovarian
K-562 leukemia = test system: K-562 leukemia
SK-OV-3 ovarian = test system: SK-OV-3 ovarian
SR leukemia = test system: SR leukemia
HL-60(TB) leukemia = test system: HL-60(TB) leukemia
HOP-92 NSCLC = test system: HOP-92 NSCLC
U251 CNS = test system: U251 CNS
SF-268 CNS = test system: SF-268 CNS
SNB-75 CNS = test system: SNB-75 CNS
DLD-1 colon = test system: DLD-1 colon
SNB-78 CNS = test system: SNB-78 CNS
HCT-116 colon = test system: HCT-116 colon
A549 NSCLC = test system: A549 NSCLC
MOLT-4 leukemia = test system: MOLT-4 leukemia
NCI-H460 lung = test system: NCI-H460 lung
NCI-H226 lung = test system: NCI-H226 lung
MALME-3M melanoma = test system: MALME-3M melanoma
SK-MEL-2 melanoma = test system: SK-MEL-2 melanoma
COLO 205 colon = test system: COLO 205 colon
RXF 393 renal = test system: RXF 393 renal

COc1ccc2c(c1)C(=O)N1CCOC1C2C(=O)O (stereo not given)
> 100 µM: TGI (SK-MEL-5 melanoma) | TGI (A498 renal) | TGI (XF 498 CNS) | TGI (SNB-19 CNS) | TGI (DMS 114 small cell lung) | TGI (LOX IMVI melanoma) | TGI (SN12C renal) | TGI (TK-10 renal) | TGI (RPMI-8226 leukemia) | TGI (M19-MEL melanoma) | TGI (UACC-257 melanoma) | TGI (CAKI-1 renal) | TGI (OVCAR-8 ovarian) | TGI (SK-MEL-28 melanoma) | TGI (NCI-H522 lung) | TGI (SF-539 CNS) | TGI (RXF-631 renal) | TGI (KM20L2 colon) | TGI (CCRF-CEM leukemia) | TGI (OVCAR-4 ovarian) | TGI (HCT-15 colon) | TGI (UACC-62 melanoma) | TGI (IGROV1 ovarian) | TGI (HOP-18 NSCLC) | TGI (OVCAR-5 ovarian) | TGI (KM12 colon) | TGI (HT29 colon) | TGI (ACHN renal) | TGI (UO-31 renal) | TGI (EKVX NSCLC) | TGI (HCC-2998 colon) | TGI (HOP-62 NSCLC) | TGI (M14 melanoma) | TGI (SW-620 colon) | TGI (786-0 renal) | TGI (NCI-H23 lung) | TGI (LXFL 529 NSCLC) | TGI (OVCAR-3 ovarian) | TGI (K-562 leukemia) | TGI (SK-OV-3 ovarian) | TGI (SR leukemia) | TGI (HL-60(TB) leukemia) | TGI (HOP-92 NSCLC) | TGI (U251 CNS) | TGI (SF-268 CNS) | TGI (SNB-75 CNS) | TGI (DLD-1 colon) | TGI (SNB-78 CNS) | TGI (HCT-116 colon) | TGI (A549 NSCLC) | TGI (MOLT-4 leukemia) | TGI (NCI-H460 lung)
29.8 µM: TGI (SF-295 CNS)
11.2 µM: TGI (DMS 273 small cell lung)

COc1ccc(/C(Cl)=C(/c2ccc(O)cc2)c2ccc(OCCN(C)C)cc2)cc1
32.9 µM: TGI (UACC-62 melanoma)
31 µM: TGI (DLD-1 colon)
24.2 µM: TGI (SW-620 colon)
36.7 µM: TGI (RXF-631 renal)
18.8 µM: TGI (786-0 renal)
23.8 µM: TGI (SF-539 CNS)
23.3 µM: TGI (HCT-15 colon) | TGI (U251 CNS) | TGI (SNB-75 CNS)
27.5 µM: TGI (CAKI-1 renal)
9.09 µM: TGI (UACC-257 melanoma)
23.6 µM: TGI (DMS 273 small cell lung)
13.4 µM: TGI (SK-MEL-28 melanoma)
30.5 µM: TGI (HCC-2998 colon)
10.3 µM: TGI (XF 498 CNS)
19.3 µM: TGI (DMS 114 small cell lung)
29.1 µM: TGI (NCI-H23 lung)
28.8 µM: TGI (OVCAR-3 ovarian)
25 µM: TGI (HOP-18 NSCLC)
18.9 µM: TGI (M19-MEL melanoma)
19.7 µM: TGI (UO-31 renal)
25.1 µM: TGI (NCI-H522 lung)
22.4 µM: TGI (SK-MEL-2 melanoma) | TGI (COLO 205 colon)
10.6 µM: TGI (SR leukemia)
27.8 µM: TGI (ACHN renal)
21.1 µM: TGI (KM12 colon)
26.3 µM: TGI (SK-OV-3 ovarian)
21.6 µM: TGI (RPMI-8226 leukemia)
16.3 µM: TGI (SF-295 CNS)
16.9 µM: TGI (SK-MEL-5 melanoma)
24.7 µM: TGI (SF-268 CNS)
26.2 µM: TGI (SN12C renal)
11.7 µM: TGI (KM20L2 colon)
30.3 µM: TGI (EKVX NSCLC)
27.1 µM: TGI (SNB-19 CNS) | TGI (OVCAR-4 ovarian)
34.1 µM: TGI (TK-10 renal)
14.4 µM: TGI (MALME-3M melanoma)
22.6 µM: TGI (LXFL 529 NSCLC)
26.1 µM: TGI (OVCAR-5 ovarian)
6.49 µM: TGI (HT29 colon)
33.2 µM: TGI (IGROV1 ovarian)
18.4 µM: TGI (RXF 393 renal)
34.4 µM: TGI (NCI-H226 lung)
12.6 µM: TGI (LOX IMVI melanoma)
26.7 µM: TGI (HOP-62 NSCLC) | TGI (A549 NSCLC)
28.9 µM: TGI (OVCAR-8 ovarian)
4.22 µM: TGI (M14 melanoma)
29.3 µM: TGI (SNB-78 CNS)
26 µM: TGI (HL-60(TB) leukemia) | TGI (NCI-H460 lung)

CC1OC(n2ccc(=O)[nH]c2=O)C=C(OC(=O)c2ccccc2)C1=O (stereo not given)
99.6 µM: TGI (HOP-92 NSCLC)
36.8 µM: TGI (OVCAR-4 ovarian)
> 100 µM: TGI (SK-MEL-5 melanoma) | TGI (XF 498 CNS) | TGI (SNB-19 CNS) | TGI (LOX IMVI melanoma) | TGI (SN12C renal) | TGI (TK-10 renal) | TGI (RPMI-8226 leukemia) | TGI (M19-MEL melanoma) | TGI (UACC-257 melanoma) | TGI (CAKI-1 renal) | TGI (OVCAR-8 ovarian) | TGI (SK-MEL-28 melanoma) | TGI (SF-539 CNS) | TGI (KM20L2 colon) | TGI (CCRF-CEM leukemia) | TGI (DMS 273 small cell lung) | TGI (HCT-15 colon) | TGI (UACC-62 melanoma) | TGI (IGROV1 ovarian) | TGI (HOP-18 NSCLC) | TGI (SF-295 CNS) | TGI (HT29 colon) | TGI (ACHN renal) | TGI (UO-31 renal) | TGI (EKVX NSCLC) | TGI (HOP-62 NSCLC) | TGI (MALME-3M melanoma) | TGI (M14 melanoma) | TGI (SW-620 colon) | TGI (786-0 renal) | TGI (NCI-H23 lung) | TGI (COLO 205 colon) | TGI (K-562 leukemia) | TGI (RXF 393 renal) | TGI (SK-OV-3 ovarian) | TGI (HL-60(TB) leukemia) | TGI (DLD-1 colon) | TGI (SNB-78 CNS) | TGI (A549 NSCLC) | TGI (MOLT-4 leukemia) | TGI (NCI-H460 lung)
81.3 µM: TGI (U251 CNS)
53.4 µM: TGI (OVCAR-3 ovarian)
63.1 µM: TGI (SNB-75 CNS)

O=C(C=Nc1ccccc1C(=O)[O-])c1cccs1.O=C(C=Nc1ccccc1C(=O)[O-])c1cccs1.[Co+2]
inactive: GI50 (M19-MEL melanoma) > 100 µM
> 100 µM: TGI (A498 renal) | TGI (SNB-19 CNS) | TGI (LOX IMVI melanoma) | TGI (SN12C renal) | TGI (TK-10 renal) | TGI (M19-MEL melanoma) | TGI (UACC-257 melanoma) | TGI (CAKI-1 renal) | TGI (OVCAR-8 ovarian) | TGI (SK-MEL-28 melanoma) | TGI (NCI-H522 lung) | TGI (SF-539 CNS) | TGI (KM20L2 colon) | TGI (CCRF-CEM leukemia) | TGI (HCT-15 colon) | TGI (UACC-62 melanoma) | TGI (IGROV1 ovarian) | TGI (HOP-18 NSCLC) | TGI (SF-295 CNS) | TGI (OVCAR-5 ovarian) | TGI (KM12 colon) | TGI (HT29 colon) | TGI (ACHN renal) | TGI (UO-31 renal) | TGI (HCC-2998 colon) | TGI (HOP-62 NSCLC) | TGI (MALME-3M melanoma) | TGI (M14 melanoma) | TGI (SW-620 colon) | TGI (786-0 renal) | TGI (SK-MEL-2 melanoma) | TGI (NCI-H23 lung) | TGI (COLO 205 colon) | TGI (K-562 leukemia) | TGI (SK-OV-3 ovarian) | TGI (SR leukemia) | TGI (HL-60(TB) leukemia) | TGI (HOP-92 NSCLC) | TGI (U251 CNS) | TGI (SF-268 CNS) | TGI (DLD-1 colon) | TGI (HCT-116 colon) | TGI (A549 NSCLC) | TGI (MOLT-4 leukemia) | TGI (NCI-H460 lung)
95.1 µM: TGI (OVCAR-3 ovarian)
